Measured values taken from US11912670B1, “Ethyl 4-(5-(3-fluorophenyl)-4-phenyl-4H-1,2,4-triazol-3-ylthio)butanoate as an antimicrobial compound” (KING FAISAL UNIVERSITY, priority 2023, dated 2024).

Key:
Assay type in all cases: cell-based
[1] = test system: Staphylococcus aureus; assay: Agar plate disc-diffusion, antibacterial (gram positive); conditions: nutrient agar, 37° C., 48 hours, DMSO control zone subtracted
Method: (§1) The agar plate disc-diffusion method was applied. […] The discs were then placed onto the surface of agar plates (nutrient agar for bacteria and Sabouraud's dextrose agar for fungi) seeded with the test organism. Each plate contained 15 mL of the agar medium, previously seeded with 0.2 mL of the broth culture of each organism pregrown for 18 hours. The plates were incubated at 37° C. for 48 hours, and 72 hours for fungi. The inhibition zones were measured in mm. Discs impregnated with DMSO were used as a control, and its inhibition zone was subtracted from the tested compound actual inhibition zone.

[2] = test system: Bacillus cereus; assay: as above; conditions: nutrient agar, 37° C., 48 hours, DMSO control zone subtracted
Method: as §1

[3] = test system: Chrysosporium keratinophilum; assay: Agar plate disc-diffusion, antifungal; conditions: Sabouraud's dextrose agar, 72 hours, DMSO control zone subtracted
Method: as §1

[4] = test system: Aspergillus flavus; assay: Agar plate disc-diffusion, antifungal; conditions: Sabouraud's dextrose agar, 72 hours, DMSO control zone subtracted
Method: as §1

[5] = test system: Pseudomonas aeruginosa; assay: Agar plate disc-diffusion, antibacterial (gram negative); conditions: nutrient agar, 37° C., 48 hours, DMSO control zone subtracted
Method: as §1

[6] = test system: Escherichia coli; assay: as above; conditions: nutrient agar, 37° C., 48 hours, DMSO control zone subtracted
Method: as §1

[7] = A = concentration of comp. = 10,000 μL
[8] = B = concentration of comp. = 30,000 μL
[9] = C = concentration of comp. = 50,000 μL

Question: CCOC(=O)CCCSc1nnc(-c2cccc(F)c2)n1-c1ccccc1 [III, ethyl 4-(5-(3-fluorophenyl)-4-phenyl-4H-1,2,4-triazol-3-ylthio)butanoate] was tested. Which “inhibition zone, Staphylococcus aureus, A” value [1, 7] did it give?
Answer: The value was 18 mm.

Question: What about the “inhibition zone, Staphylococcus aureus, B” value [1, 8] of the same molecule?
Answer: Its value is 25 mm.

Question: What about the “inhibition zone, Staphylococcus aureus, C” value [1, 9] of the same molecule?
Answer: The value was 30 mm.

Question: What about the “inhibition zone, Bacillus Cereus, A” value [2, 7] of the same molecule?
Answer: The value was 27 mm.

Question: And the “inhibition zone, Bacillus Cereus, B” value [2, 8]?
Answer: The value was 29 mm.

Question: And the “inhibition zone, Bacillus Cereus, C” value [2, 9]?
Answer: The value was 40 mm.

Question: What about the “inhibition zone, Chrysosporium keratinophilum, A” value ([3]; A = concentration of comp. = 10,000 μg/mL) of the same molecule?
Answer: The value was 25 mm.

Question: What about the “inhibition zone, Chrysosporium keratinophilum, B” value [3, 8] of the same molecule?
Answer: Its value is 28 mm.

Question: And the “inhibition zone, Chrysosporium keratinophilum, C” value [3, 9]?
Answer: The value was 48 mm.

Question: And the “inhibition zone, Aspergillus flavus, A” value [4, 7]?
Answer: The value was 26 mm.

Question: And the “inhibition zone, Aspergillus flavus, B” value [4, 8]?
Answer: The value was 28 mm.

Question: What about the “inhibition zone, Aspergillus flavus, C” value [4, 9] of the same molecule?
Answer: Its value is 40 mm.

Question: What about the “inhibition zone, Pseudomonas aeruginosa, A” value [5, 7] of the same molecule?
Answer: The value was 25 mm.

Question: And the “inhibition zone, Pseudomonas aeruginosa, B” value [5, 8]?
Answer: The value was 29 mm.

Question: And the “inhibition zone, Pseudomonas aeruginosa, C” value [5, 9]?
Answer: The value was 46 mm.

Question: And the “inhibition zone, Escherichia coli, A” value [6, 7]?
Answer: Its value is 22 mm.

Question: And the “inhibition zone, Escherichia coli, B” value [6, 8]?
Answer: The value was 29 mm.

Question: What about the “inhibition zone, Escherichia coli, C” value [6, 9] of the same molecule?
Answer: Its value is 42 mm.
